The text below walks through data of ChEMBL document CHEMBL4184192, “5-HT1A and 5-HT2A receptors affinity, docking studies and pharmacological evaluation of a series of 8-acetyl-7-hydroxy-4-methylcoumarin derivatives” (Bioorg Med Chem, 2018).

For orientation: EC50 means the concentration giving half of the maximal effect. For orientation: inhibition means the change of the read-out against control, counted positive when it falls. In general, Ki refers to the equilibrium dissociation constant of an inhibitor or competing ligand from its target. A higher Ki goes with lower affinity. The Emax is the greatest response seen or fitted, relative to the assay's reference.

Calls of active or inactive are those of the source. The calls are words filed in the database; no cut-off is given here.

In data set [1] the target is T1, 5-hydroxytryptamine receptor 1A (Rattus norvegicus, UniProt P19327).
T1 sequence (P19327 whole entry): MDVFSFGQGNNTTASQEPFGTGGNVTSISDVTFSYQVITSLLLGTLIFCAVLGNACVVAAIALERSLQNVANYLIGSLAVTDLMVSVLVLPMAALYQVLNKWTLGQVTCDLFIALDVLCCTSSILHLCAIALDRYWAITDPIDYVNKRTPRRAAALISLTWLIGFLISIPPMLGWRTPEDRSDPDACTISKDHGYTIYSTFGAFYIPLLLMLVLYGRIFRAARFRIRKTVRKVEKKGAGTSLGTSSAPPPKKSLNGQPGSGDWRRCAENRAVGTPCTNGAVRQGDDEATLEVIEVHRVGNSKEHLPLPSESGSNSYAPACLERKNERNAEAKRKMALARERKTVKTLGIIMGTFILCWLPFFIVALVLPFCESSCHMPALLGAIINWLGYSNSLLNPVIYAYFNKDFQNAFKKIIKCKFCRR
The data set is described as follows: Agonist activity at 5-HT1A receptor in Sprague-Dawley rat hippocampal membranes after 90 mins by microbeta scintillation counting based [35S]GTPgammaS binding assay. The class given is functional. For orientation: GTPγS resists hydrolysis and so accumulates on activated G proteins.

Data set [2] deals with T2, 5-hydroxytryptamine receptor 1A (Rattus norvegicus) (UniProt P19327).
T2 sequence (whole entry): T1 sequence (P19327 whole entry)
Nature of the data set: Antagonist activity at 5-HT1A receptor in Sprague-Dawley rat hippocampal membranes assessed as inhibition of 8-OH-DPAT-induced receptor activation at 10^-10 to 10^-5 M after 90 mins by microbeta scintillation counting based [35S]GTPgammaS binding assay relative to control. It is filed as functional.

Data set [3] concerns the target 5-hydroxytryptamine receptor 2A (Homo sapiens, UniProt P28223). Nature of the data set: Displacement of [3H]-ketanserin from human 5-HT2A receptor expressed in CHO-K1 cell membranes after 60 mins by microbeta scintillation counting analysis. The class given is cell-based.
Data set [4] concerns the target T3, 5-hydroxytryptamine receptor 1A (Homo sapiens, UniProt P08908).
T3 sequence (P08908 whole entry): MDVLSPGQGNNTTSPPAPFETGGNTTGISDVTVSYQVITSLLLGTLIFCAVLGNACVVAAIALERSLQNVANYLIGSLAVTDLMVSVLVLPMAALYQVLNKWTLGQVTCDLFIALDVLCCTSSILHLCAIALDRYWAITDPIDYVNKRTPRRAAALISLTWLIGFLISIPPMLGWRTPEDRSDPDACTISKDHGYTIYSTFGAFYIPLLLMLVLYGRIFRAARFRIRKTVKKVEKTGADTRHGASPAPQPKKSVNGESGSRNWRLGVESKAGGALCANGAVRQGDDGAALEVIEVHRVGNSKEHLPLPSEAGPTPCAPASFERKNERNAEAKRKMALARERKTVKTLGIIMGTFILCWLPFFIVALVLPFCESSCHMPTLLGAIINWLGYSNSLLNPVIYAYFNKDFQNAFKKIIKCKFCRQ
The data set is described as follows: Displacement of [3H]-8-OH-DPAT from human 5-HT1A receptor expressed in CHO-K1 cell membranes after 60 mins by microbeta scintillation counting analysis.

For data set [5], the target named is T1, 5-hydroxytryptamine receptor 1A. The data set is described as follows: Antagonist activity at 5-HT1A receptor in Sprague-Dawley rat hippocampal membranes assessed as inhibition of 8-OH-DPAT-induced receptor activation after 90 mins by microbeta scintillation counting based [35S]GTPgammaS binding assay. It is filed as functional.
Data set [6] concerns the target T2, 5-hydroxytryptamine receptor 1A (Rattus norvegicus). Nature of the data set: Agonist activity at 5-HT1A receptor in Sprague-Dawley rat hippocampal membranes at 10^-10 to 10^-5 M after 90 mins by microbeta scintillation counting based [35S]GTPgammaS binding assay relative to control. The class given is functional.
The test system of data set [7] is Mus musculus. Nature of the data set: Toxicity in Balb/c mouse assessed as alterations in visible locomotor activity at 0.3 to 10 mg/kg, ip administered 30 mins prior to test. It is filed as organism-based. Conditions: in vivo, 0.5 h.
Data set [8] has as its system Mus musculus. The data set is described as follows: Toxicity in Balb/c mouse assessed as alterations in despair-related locomotor activity at 0.3 to 10 mg/kg, ip administered 30 mins prior to test. It is filed as organism-based. Conditions: in vivo, 0.5 h.
Data set [9] is filed under the species Mus musculus. Nature of the data set: Pro-depressant activity in Balb/c mouse assessed as decrease in home cage activity. The class given is ADME, organism-based. Conditions: in vivo.
In data set [10] the test system is Mus musculus. The data set is described as follows: Antidepressant activity in Balb/c mouse assessed as decrease in immobility time at 0.3 to 1 mg/kg, ip administered 30 mins prior to test measured for 6 mins by tail suspension test. The class given is functional, organism-based.
In data set [11] the test system is Mus musculus. The data set is described as follows: Pro-depressant activity in Balb/c mouse assessed as decrease in immobility time administered ip 30 mins prior to test measured for 6 mins by tail suspension test. It is filed as ADME, organism-based. Conditions: in vivo, 0.1 h.
Data set [12] concerns Mus musculus. The data set is described as follows: Pro-depressant activity in Balb/c mouse assessed as decrease in immobility time at 3 to 10 mg/kg, ip administered 30 mins prior to test measured for 6 mins by tail suspension test. The class given is ADME, organism-based. Conditions: in vivo, 0.1 h.
Data set [13] has as its system Mus musculus. The data set is described as follows: Antidepressant activity in Balb/c mouse assessed as decrease in immobility time administered ip 30 mins prior to test measured for 6 mins by tail suspension test. The class given is functional, organism-based.

Chain of 5-hydroxytryptamine receptor 2A (P28223 whole entry): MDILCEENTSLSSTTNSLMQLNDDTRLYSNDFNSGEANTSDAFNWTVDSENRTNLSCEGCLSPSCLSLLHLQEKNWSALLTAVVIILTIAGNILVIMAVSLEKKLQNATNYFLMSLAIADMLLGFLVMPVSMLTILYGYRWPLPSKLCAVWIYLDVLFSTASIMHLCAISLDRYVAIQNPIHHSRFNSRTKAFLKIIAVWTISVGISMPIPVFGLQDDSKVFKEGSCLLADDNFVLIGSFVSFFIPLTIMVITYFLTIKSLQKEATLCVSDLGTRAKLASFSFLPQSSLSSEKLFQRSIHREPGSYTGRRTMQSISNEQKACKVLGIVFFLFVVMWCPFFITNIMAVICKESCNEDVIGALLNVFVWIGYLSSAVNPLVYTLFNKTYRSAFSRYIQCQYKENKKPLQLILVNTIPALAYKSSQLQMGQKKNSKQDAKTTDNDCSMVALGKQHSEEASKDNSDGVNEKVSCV

With `COc1ccccc1N1CCN(CCCOc2ccc3c(C)cc(=O)oc3c2C(C)=O)CC1`, the results for the EC50 in [1] and in [5] were 2 nM and 631 nM, respectively. Besides, the inhibition in [2] was 70%. The inhibitory constant (Ki) in [3] is 8 nM; in [4], 0.6 nM. Besides, in [6], the maximal response (Emax) came out at 108%. Further, the Activity entry in the data set with Mus musculus [7] and in the data set with Mus musculus [8] was “Non-Toxic” each time.
Consider `CC(=O)c1c(OCCCN2CCN(c3ccccc3C(F)(F)F)CC2)ccc2c(C)cc(=O)oc12`, for which the figures for the Ki in [3] and in [4] were 20 nM and 8.8 nM, respectively.
Regarding `CC(=O)c1c(OCCCCN2CCN(c3cc(C)ccc3C)CC2)ccc2c(C)cc(=O)oc12`, the figures for the Ki in [3] and in [4] were 46.8 nM and 5.4 nM, respectively.
Turning to `CC(=O)c1c(OCCCN2CCN(c3ccccc3Br)CC2)ccc2c(C)cc(=O)oc12`, the values for the EC50 in [1] and in [5] were 39.8 nM and 126 nM, respectively. Moreover, the inhibition in [2] is 82%. Besides, the Ki in data set [3] came to 7 nM; in [4], 0.5 nM. Also, the Activity entry in the data set filed under Mus musculus [9] is listed as “Toxic”; with Mus musculus [11] it was “Dose-dependent effect”; in the data set on Mus musculus [12], “Toxic”. The result with Mus musculus [10] was inactive. For the same molecule, the Emax in [6] came out at 112%.
Take `COc1ccccc1N1CCN(CCCCOc2ccc3c(C)cc(=O)oc3c2C(C)=O)CC1`: the Ki in data set [3] is 56 nM; in data set [4] it was 1 nM.
Turning to `CC(=O)c1c(OCCCN2CCN(c3cc(C)ccc3C)CC2)ccc2c(C)cc(=O)oc12`, the inhibitory constant (Ki) worked out at 102 nM in data set [3] and 14 nM in data set [4].
The like results for `CC(=O)c1c(OCCCN2CCN(c3cccc(F)c3)CC2)ccc2c(C)cc(=O)oc12` were, in that order, 408 nM and 1350 nM.
In the case of `CC(=O)c1c(OCCCCN2CCN(c3ccccc3Br)CC2)ccc2c(C)cc(=O)oc12`, the results for the Ki in data set [3] and in data set [4] were 10 nM and 1.5 nM, respectively.
The corresponding values for `CC(=O)c1c(OCCCCN2CCN(c3cccc(Br)c3)CC2)ccc2c(C)cc(=O)oc12` are 6.5 nM and 2.5 nM.
Take `CNCCC(Oc1ccc(C(F)(F)F)cc1)c1ccccc1` (configuration not stated): the Activity entry in the data set with Mus musculus [13] is “Dose-dependent effect”.
Turning to `CC(=O)c1c(OCCCN2CCN(c3cc(C)cc(C)c3)CC2)ccc2c(C)cc(=O)oc12`, the values for the inhibitory constant (Ki) in [3] and in data set [4] were 12.5 nM and 0.9 nM, respectively.
On to `CC(=O)c1c(OCCCCN2CCN(c3ccccc3C(F)(F)F)CC2)ccc2c(C)cc(=O)oc12`, for which the Ki amounted to 48.7 nM in [3] and 11 nM in [4].
For the molecule `CC(=O)c1c(OCCCCN2CCN(c3cc(C)cc(C)c3)CC2)ccc2c(C)cc(=O)oc12`, the inhibitory constant (Ki) was found to be 58 nM in data set [3] and 3.7 nM in data set [4].
The like results for `CC(=O)c1c(OCCCN2CCN(c3ccccc3Cl)CC2)ccc2c(C)cc(=O)oc12` were, in that order, 22 nM and 2 nM.
On to `CC(=O)c1c(OCCCN2CCN(c3cccc(Br)c3)CC2)ccc2c(C)cc(=O)oc12`, for which the Ki in data set [3] was 6 nM; in data set [4], 3.5 nM.
For the molecule `CC(=O)c1c(OCCCCN2CCN(c3ccccc3Cl)CC2)ccc2c(C)cc(=O)oc12`, the Ki in data set [3] amounted to 20 nM; in data set [4], 0.9 nM.
The corresponding values for `CC(=O)c1c(OCCCCN2CCN(c3cccc(F)c3)CC2)ccc2c(C)cc(=O)oc12` are 400 nM and 50 nM.
